The numbers were not newly measured in US8703900B2 (BioAmber Inc., priority 2010, dated 2014), which cites them from elsewhere.

SMILES strings stand for the structures.

For this series the following is noted: first acid group.

`O=C(O)CCCCC(=O)O` [AA, adipic acid]: the pKa1 is on record as 4.43.
